These results are taken from patent US20250313548A1 (Actio Biosciences, Inc., priority 2023, published 2025).

A value given as a limit tells only on which side of the number the result lay.

Chain of human, KCNT1 (Q5JUK3 whole entry): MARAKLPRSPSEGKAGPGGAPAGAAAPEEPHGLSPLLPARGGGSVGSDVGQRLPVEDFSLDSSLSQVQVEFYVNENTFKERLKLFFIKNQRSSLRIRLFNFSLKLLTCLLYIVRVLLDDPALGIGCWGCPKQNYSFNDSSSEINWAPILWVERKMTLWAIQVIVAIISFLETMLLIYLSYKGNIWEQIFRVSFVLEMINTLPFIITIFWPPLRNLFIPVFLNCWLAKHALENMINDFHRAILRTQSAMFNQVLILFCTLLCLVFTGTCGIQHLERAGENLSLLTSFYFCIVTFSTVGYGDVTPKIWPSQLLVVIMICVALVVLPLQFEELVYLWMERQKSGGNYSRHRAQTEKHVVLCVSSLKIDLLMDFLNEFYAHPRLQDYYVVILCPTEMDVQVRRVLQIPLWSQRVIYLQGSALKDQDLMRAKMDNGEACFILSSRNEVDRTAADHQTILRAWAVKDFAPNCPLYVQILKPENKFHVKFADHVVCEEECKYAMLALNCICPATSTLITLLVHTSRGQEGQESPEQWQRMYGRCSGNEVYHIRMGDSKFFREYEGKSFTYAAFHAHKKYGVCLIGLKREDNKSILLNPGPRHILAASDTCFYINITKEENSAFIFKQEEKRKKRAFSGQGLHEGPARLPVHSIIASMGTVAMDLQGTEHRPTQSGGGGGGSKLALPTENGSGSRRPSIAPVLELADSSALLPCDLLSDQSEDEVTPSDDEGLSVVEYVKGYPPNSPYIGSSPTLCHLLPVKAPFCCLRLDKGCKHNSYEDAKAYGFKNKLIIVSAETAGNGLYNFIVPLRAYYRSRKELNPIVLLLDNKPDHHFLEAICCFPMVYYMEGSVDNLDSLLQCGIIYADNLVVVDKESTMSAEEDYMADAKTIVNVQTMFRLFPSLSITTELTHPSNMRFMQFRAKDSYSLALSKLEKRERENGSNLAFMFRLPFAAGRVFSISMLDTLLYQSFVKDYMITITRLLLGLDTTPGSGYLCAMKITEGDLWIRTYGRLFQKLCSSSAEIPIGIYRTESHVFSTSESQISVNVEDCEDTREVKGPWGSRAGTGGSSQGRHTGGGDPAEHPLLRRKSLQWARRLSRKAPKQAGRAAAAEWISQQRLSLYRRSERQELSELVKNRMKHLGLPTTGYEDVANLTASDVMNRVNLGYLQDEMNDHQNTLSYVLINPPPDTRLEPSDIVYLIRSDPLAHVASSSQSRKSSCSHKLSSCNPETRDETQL

This experiment has as its target human, KCNT1 (Homo sapiens (Human), UniProt Q5JUK3). The experiment in a line: FLIPR Tl/K Flux Assay. To be noted: HEK293 cells stably expressing human KCNT1; Tl+ flux stimulated with EC80 of agonist Loxapine. Format: cell-based. An outline of the steps: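 Inhibition values come from a Hill-equation fit of % inhibition versus log concentration, using normalized fluorescence (Fmax/Fmin) over a 160 s read. The read followed stimulation with Tl+ plus EC80 agonist loxapine after 30 min compound pre-incubation at 25 °C. Cells were KCNT1-expressing HEK293, dye-loaded 1 h in pH 7.4 HEPES/HBSS with 5 mM probenecid.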
As to `CC(F)(F)c1cc(-c2cc3n(n2)CCC[C@@H]3NC(=O)c2ccnc(C(F)(F)F)c2)ccn1` [Compound I-500a, (S)-N-(2-(2-(1,1-Difluoroethyl)pyridin-4-yl)-4,5,6,7-tetrahydropyrazolo[1,5-a]pyridin-4-yl)-2-(trifluoromethyl)isonicotinamide], the concentration for half-maximal inhibition (IC50) (commonly the concentration at which inhibition is half-maximal) was less than 250 nM.

The molecule `O=C(N[C@H]1CCCn2nc(-c3ccnc(C(F)(F)F)c3)cc21)C12CC(C(F)(F)F)(C1)C2` [Compound I-501a, (S)-3-(Trifluoromethyl)-N-(2-(2-(trifluoromethyl)pyridin-4-yl)-4,5,6,7-tetrahydropyrazolo[1,5-a]pyridin-4-yl)bicyclo[1.1.1]pentane-1-carboxamide] had an IC50 of less than 250 nM.

Turning to `O=C(N[C@@H]1CCCn2nc(-c3cc(C(F)(F)F)ncc3F)nc21)c1cncc(C(F)(F)F)n1` [Compound I-502b], the IC50 was greater than 1000 nM.

In turn, `COc1cc(-c2nc3c(o2)CCC[C@H]3NC(=O)c2cncc(C(F)(F)F)n2)c(F)cn1` [Compound I-503b] gave a half-maximal inhibitory concentration (IC50) greater than 1000 nM.

`Cn1nc(C(F)(F)F)nc1C(=O)N[C@@H]1CCCc2oc(-c3ccnc(C4CC4)c3)nc21` [Compound I-504b] gave a 50% inhibitory concentration (IC50) greater than 1000 nM.

Turning to `O=C(N[C@H]1CCCc2oc(-c3ccnc(C4CC4)c3)nc21)c1cn(C(F)(F)F)nc1C(F)F` [Compound I-505a, (S)—N-(2-(2-Cyclopropylpyridin-4-yl)-4,5,6,7-tetrahydrobenzo[d]oxazol-4-yl)-3-(difluoromethyl)-1-(trifluoromethyl)-1H-pyrazole-4-carboxamide], the IC50 is less than 250 nM.

In turn, `O=C(N[C@H]1CCCc2oc(-c3ccnc(C(F)(F)F)c3)nc21)c1cn(C(F)(F)F)nc1C(F)F` [Compound I-506a, (S)-3-(Difluoromethyl)-1-(trifluoromethyl)-N-(2-(2-(trifluoromethyl)pyridin-4-yl)-4,5,6,7-tetrahydrobenzo[d]oxazol-4-yl)-1H-pyrazole-4-carboxamide] had an IC50 of less than 250 nM.

With `O=C(N[C@H]1CCCc2oc(-c3ccnc(C(F)(F)F)c3)nc21)C12CC(C(F)(F)F)(C1)C2` [Compound I-507a, (S)-3-(Trifluoromethyl)-N-(2-(2-(trifluoromethyl)pyridin-4-yl)-4,5,6,7-tetrahydrobenzo[d]oxazol-4-yl)bicyclo[1.1.1]pentane-1-carboxamide], the IC50 is less than 250 nM.

The molecule `CC(F)(F)c1cc(-c2nc3c(o2)CCC[C@@H]3NC(=O)c2cccc(F)c2)ccn1` [Compound I-508a, (S)—N-(2-(2-(1,1-difluoroethyl)pyridin-4-yl)-4,5,6,7-tetrahydrobenzo[d]oxazol-4-yl)-3-fluorobenzamide] registered an IC50 of less than 250 nM.

The molecule `CC(F)(F)c1cc(-c2nc3c(o2)CCC[C@H]3NC(=O)c2cccc(F)c2)ccn1` [Compound I-508b, (R)—N-(2-(2-(1,1-difluoroethyl)pyridin-4-yl)-4,5,6,7-tetrahydrobenzo[d]oxazol-4-yl)-3-fluorobenzamide] came in with a concentration for half-maximal inhibition (IC50) greater than 1000 nM.

Regarding `O=C(N[C@@H]1CCCc2nc(-c3ccnc(C4CC4)c3)oc21)c1cncc(C(F)(F)F)n1` [Compound I-509b], the IC50 was greater than 1000 nM.

The molecule `O=C(N[C@@H]1CCCc2nc(-c3ccnc(C(F)(F)F)c3)oc21)c1cncc(C(F)(F)F)n1` [Compound I-510b] yielded an IC50 greater than 1000 nM.

The molecule `O=C(N[C@@H]1CCCc2nc(-c3cc(C4CC4)ncc3F)oc21)c1cncc(C(F)(F)F)n1` [Compound I-511b] displayed an IC50 greater than 1000 nM.

In turn, `COc1cc(-c2nc3c(o2)[C@H](NC(=O)c2cncc(C(F)(F)F)n2)CCC3)ccn1` [Compound I-512b] gave an IC50 greater than 1000 nM.

`COc1cc(-c2nc3c(o2)[C@H](NC(=O)c2cncc(C(F)(F)F)n2)CCC3)c(Cl)cn1` [Compound I-513b] returned an IC50 greater than 1000 nM.

In the case of `Cn1nc(C(F)(F)F)cc1C(=O)N[C@H]1CCCc2nc(-c3cc(C(F)(F)F)ncc3F)oc21` [Compound I-514a, (S)—N-(2-(5-Fluoro-2-(trifluoromethyl)pyridin-4-yl)-4,5,6,7-tetrahydrobenzo[d]oxazol-7-yl)-1-methyl-3-(trifluoromethyl)-1H-pyrazole-5-carboxamide], the IC50 is less than 250 nM.

Molecule `O=C(N[C@H]1CCCc2nc(-c3ccnc(C(F)(F)F)c3)oc21)C12CC(C(F)(F)F)(C1)C2` [Compound I-515a] displayed an IC50 of less than 250 nM.

As for `COc1cc(-c2cc3n(n2)CCCC[C@H]3NC(=O)c2cc(F)cc(C#N)c2)c(F)cn1` [Compound I-516b], the IC50 lay in the range of 500 to 1000 nM.

As to `COc1cc(C(=O)N[C@@H]2CCCCn3nc(-c4cc(C(F)(F)F)ncc4F)cc32)ccn1` [Compound I-517b], the IC50 lay in the range of 500 to 1000 nM.

In the case of `O=C(N[C@H]1CCCc2oc(-c3ccnc(C4CC4)c3)nc21)c1cn(C(F)(F)F)nc1C(F)(F)F` [Compound I-519a, (S)—N-(2-(2-cyclopropylpyridin-4-yl)-4,5,6,7-tetrahydrobenzo[d]oxazol-4-yl)-1,3-bis(trifluoromethyl)-1H-pyrazole-4-carboxamide], the half-inhibitory concentration (IC50) was less than 250 nM.

Consider `O=C(N[C@H]1CCCc2oc(-c3ccnc(C(F)(F)F)c3)nc21)c1cn(C(F)(F)F)nc1C(F)(F)F` [Compound I-520a, (S)-1,3-bis(trifluoromethyl)-N-(2-(2-(trifluoromethyl)pyridin-4-yl)-4,5,6,7-tetrahydrobenzo[d]oxazol-4-yl)-1H-pyrazole-4-carboxamide], for which the IC50 was less than 250 nM.

For the molecule `O=C(N[C@H]1CCn2nc(-c3ccnc(C(F)(F)F)c3)cc21)c1cn(C(F)(F)F)nc1C(F)(F)F` [Compound I-521a, (S)-1,3-bis(trifluoromethyl)-N-(2-(2-(trifluoromethyl)pyridin-4-yl)-5,6-dihydro-4H-pyrrolo[1,2-b]pyrazol-4-yl)-1H-pyrazole-4-carboxamide], the half-maximal inhibitory concentration (IC50) was less than 250 nM.

Regarding `O=C(N[C@H]1CCn2nc(-c3cc(C(F)(F)F)ncc3F)cc21)C1CC2(CC2)C1` [Compound I-522a, (S)—N-(2-(5-Fluoro-2-(trifluoromethyl)pyridin-4-yl)-5,6-dihydro-4H-pyrrolo[1,2-b]pyrazol-4-yl)spiro[2.3]hexane-5-carboxamide], the IC50 is less than 250 nM.

For `CC1(C)CC(C(=O)N[C@H]2CCn3nc(-c4cc(C(F)(F)F)ncc4F)cc32)C1` [Compound I-523a, (S)-N-(2-(5-Fluoro-2-(trifluoromethyl)pyridin-4-yl)-5,6-dihydro-4H-pyrrolo[1,2-b]pyrazol-4-yl)-3,3-dimethylcyclobutane-1-carboxamide], the IC50 is less than 250 nM.

On to `CC12CC(C(=O)N[C@H]3CCn4nc(-c5cc(C(F)(F)F)ncc5F)cc43)(C1)C2` [Compound I-524a, (S)-N-(2-(5-Fluoro-2-(trifluoromethyl)pyridin-4-yl)-5,6-dihydro-4H-pyrrolo[1,2-b]pyrazol-4-yl)-3-methylbicyclo[1.1.1]pentane-1-carboxamide], for which the concentration for half-maximal inhibition (IC50) is less than 250 nM.

`COC12CC(C(=O)N[C@H]3CCn4nc(-c5cc(C(F)(F)F)ncc5F)cc43)(C1)C2` [Compound I-525a, (S)-N-(2-(5-Fluoro-2-(trifluoromethyl)pyridin-4-yl)-5,6-dihydro-4H-pyrrolo[1,2-b]pyrazol-4-yl)-3-methoxybicyclo[1.1.1]pentane-1-carboxamide] came in with an IC50 of less than 250 nM.

`CC(F)(F)C12CC(C(=O)N[C@H]3CCn4nc(-c5cc(C(F)(F)F)ncc5F)cc43)(C1)C2` [Compound I-526a, (S)-3-(1,1-Difluoroethyl)-N-(2-(5-fluoro-2-(trifluoromethyl)pyridin-4-yl)-5,6-dihydro-4H-pyrrolo[1,2-b]pyrazol-4-yl)bicyclo[1.1.1]pentane-1-carboxamide]: the IC50 was less than 250 nM.

As to `O=C(N[C@H]1CCn2nc(-c3cc(C(F)(F)F)ncc3F)cc21)C12CC(C(F)F)(C1)C2` [Compound I-527a, (S)-3-(Difluoromethyl)-N-(2-(5-fluoro-2-(trifluoromethyl)pyridin-4-yl)-5,6-dihydro-4H-pyrrolo[1,2-b]pyrazol-4-yl)bicyclo[1.1.1]pentane-1-carboxamide], the half-inhibitory concentration (IC50) is less than 250 nM.

Molecule `CC(F)(F)c1cc(C(=O)N[C@H]2CCn3nc(-c4ccnc(C(F)(F)F)c4)cc32)ccn1` [Compound I-528a, (S)-2-(1,1-Difluoroethyl)-N-(2-(2-(trifluoromethyl)pyridin-4-yl)-5,6-dihydro-4H-pyrrolo[1,2-b]pyrazol-4-yl)isonicotinamide] yielded an IC50 of less than 250 nM.

`O=C(N[C@H]1CCCn2nc(-c3ccnc(C(F)(F)F)c3)cc21)c1cnn(C(F)(F)F)c1C(F)(F)F` [Compound I-529a, (S)-1,5-bis(trifluoromethyl)-N-(2-(2-(trifluoromethyl)pyridin-4-yl)-4,5,6,7-tetrahydropyrazolo[1,5-a]pyridin-4-yl)-1H-pyrazole-4-carboxamide] came in with an IC50 of less than 250 nM.

For the molecule `O=C(N[C@H]1CCCc2oc(-c3ccnc(C4CC4)c3)nc21)c1cnn(C(F)(F)F)c1C(F)(F)F` [Compound I-530a, (S)—N-(2-(2-cyclopropylpyridin-4-yl)-4,5,6,7-tetrahydrobenzo[d]oxazol-4-yl)-1,5-bis(trifluoromethyl)-1H-pyrazole-4-carboxamide], the IC50 is less than 250 nM.

In the case of `O=C(N[C@H]1CCCc2oc(-c3ccnc(C(F)(F)F)c3)nc21)c1cnn(C(F)(F)F)c1C(F)(F)F` [Compound I-531a, (S)-1,5-bis(trifluoromethyl)-N-(2-(2-(trifluoromethyl)pyridin-4-yl)-4,5,6,7-tetrahydrobenzo[d]oxazol-4-yl)-1H-pyrazole-4-carboxamide], the IC50 was less than 250 nM.

Take `O=C(N[C@H]1CCn2nc(-c3ccnc(C(F)(F)F)c3)cc21)c1cnn(C(F)(F)F)c1C(F)(F)F` [Compound I-532a, (S)-1,5-bis(trifluoromethyl)-N-(2-(2-(trifluoromethyl)pyridin-4-yl)-5,6-dihydro-4H-pyrrolo[1,2-b]pyrazol-4-yl)-1H-pyrazole-4-carboxamide]: the 50% inhibitory concentration (IC50) was less than 250 nM.
